Test results: patent US11446283B2, “Methods and dosing regimens using ibudilast and a second agent for cancer therapy” (MediciNova, Inc., priority 2018, dated 2022)

Tests used:
[1] = test system: Patient-derived cell line RN1 (MGMT unmethylated GBM); assay: Efficacy in balb/c nude mice harboring intracranial patient-derived glioblastoma (RN1), Kaplan-Meier survival; details: for survival rate: at 105 days, control 0%; for median survival time: gavage daily; for mice that survived longer than the longest surviving mouse in the control group: n=8
Procedure: Patient-derived cell line RN1 (2 μL) was intra-cranially injected into balb/c nude mice.
6-8 week old balb/c nude mice were used. All procedures, except autopsies, were carried out within a laminar flow cabinet. Tumors were induced following the procedure disclosed in Wakimoto H. et al. (2012) Neuro Oncol. 14(2): 132-44. Balb/c nude mice were weighed and held in groups of four. The mice received an analgesic 2 hours prior to primary human tumor cell implantation—the mice were injected subcutaneously with 5 mg/kg Rimadyl (Carprofen). The animals were anesthetized via continuous mask inhalation of isoflurane (2.5-3%, 1 L/min oxygen for induction and 1-2.5%, 0.2 L/min oxygen for maintenance). The depth of anesthesia was assessed by toe pinch reflex (leg withdrawal) before the procedure began (cf. monitoring sheet #1).
A 2 mm drill hole was made at the stereotactically in the right caudate putamen using the coordinates 1 mm anterior, 1.5 mm lateral, and 3.0 mm below the bregma. A micro-injector unit (holding a 2 μl Hamilton syringe with a 25-gauge needle) connected to the manipulating arm of the stereotactic device was used to inject a 2 μL solution containing 200,000 primary human tumor cells dorsoventrally (DV) at −3 from the skull surface, to deposit cells into the lateral portion of the striatum (right basal ganglia). All injections were made over a period of 10 minutes to ensure optimal parenchymal compliance. The micro-injector needle was retracted and the burr hole in the skull closed using bone-wax (Johnson & Johnson) in order to prevent extracranial tumor growth. Skin was closed using a tissue adhesive (Vetbond). Mice received sterile eye drops (Systane) throughout the procedure to avoid eye dryness.
Two dosages of ibudilast were administered to the balb/c nude mice: 5 mg/kg and 20 mg/kg (both in 100 uL total volume). The dosage of ibudilast was extrapolated from multiple animal studies on rats looking at the treatment of multiple sclerosis (MS) disease and models of central neuropathic pain (Ellis et al. 2014; Reagan-shaw et al. 2008).
10 mg/kg of temozolomide (TMZ) was administered to the balb/c nude mice through intraperitoneal injection.
Five treatment groups were used as follows: • 1. Ibudilast 5 mg/kg by gavage (n=8) • 2. Ibudilast: 20 mg/kg by gavage (n=8) • 3. Combination 1: Ibudilast (5 mg/kg)+TMZ (10 mg/kg) (n=8) • 4. Combination 2: Ibudilast (20 mg/kg)+TMZ (10 mg/kg) (n=8) • 5. Control saline containing polyoxyethylene hydrogenated castor oil 60; 100 μL) (n=8)
For all of the treatment groups (except the control group), ibudilast was administered by gavage (daily) for approximately 59 days (until the last control mouse died) and TMZ was administered via intraperitoneal injection (daily) for two weeks.
At approximately 43 days after tumor implantation, mice were treated with temozolomide (10 mg/kg) and/or ibudilast (5 mg/kg or 20 mg/kg). Ibudilast was administered in a solution of saline containing polyoxyethylene hydrogenated castor oil 60 using the gavage method (100 μl total volume) (Fujimoto et al., 1999 J Neuroimmunology 95:1-2, 35-42). Temozolomide was delivered by intraperitoneal injection (I.P.) in 0.1% dimethyl sulfoxide (DMSO, […] total volume).
At this particular time, animals were carefully monitored (twice daily) as neurological decline can occur rapidly. Typical signs of neurological decline include a hunched posture with an arched back, continuous circling, walking on tip-toes, balance issues, closed eyes, hyperactivity, and seizures. Neurological decline was scored (cf. monitoring sheet #3) for each animal.
When signs of pain, distress or neurological decline were noted, animals were immediately euthanized by inhalation of a progressive overdose of carbon dioxide (cf. B.7). Animals were also immediately euthanized if they lost more than 20% of their body weight.

[2] = in vivo; cited from earlier work

SMILES | median survival ([1]; TMZ 10 mg/kg intraperitoneal daily for two weeks, control 100.5 days) | effect in the mouse glioblastoma model ([1]; 5 and 20 mg/kg) | survival rate ([1]; ibudilast 5 mg/kg) | survival rate ([1]; ibudilast 20 mg/kg) | median survival time ([1]; ibudilast 5 mg/kg (low dose) monotherapy, control 100.5 days) | mice that survived longer than the longest surviving mouse in the control group ([1]; ibudilast 5 mg/kg) | median survival time ([1]; ibudilast 20 mg/kg (high dose) monotherapy, control 100.5 days) | mice that survived longer than the longest surviving mouse in the control group ([1]; ibudilast 20 mg/kg) | median survival compared with controls (significance) ([1]; monotherapy at either low dose (5 mg/kg) or high dose (20 mg/kg)) | CNS penetration [2]
Cn1nnc2c(C(N)=O)ncn2c1=O [TMZ, temozolomide] | 105.5 days | – | – | – | – | – | – | – | – | –
CC(C)C(=O)c1c(C(C)C)nn2ccccc12 [ibudilast, 3-isobutyryl-2-isopropylpyrazolo[1,5-a]pyridine] | – | positive effect | 12% | 25% | 89 days | one mouse | 97.5 days | two mice | did not significantly differ from the controls | good CNS penetration
COc1ccc(C2CNC(=O)C2)cc1OC1CCCC1 (centres unmarked) [rolipram] | – | – | – | – | – | – | – | – | – | poor penetration
